Experimental data published in US20220110985A1, “NUTRITIONAL COMPOSITION COMPRISING 2'FUCOSYLLACTOSE AND 3'GALACTOSYLLACTOSE” (N.V. Nutricia, priority 2019, published 2022).

Tests used:
[1] = system: human peripheral blood mononuclear cells (PBMCs); test: PBMC cell activity (WST-1); type: cell-based; settings: after 24 h; non-stimulated and CD3/CD28 stimulated conditions
Procedure: Isolation of PBMC from healthy donors: Human peripheral blood mononuclear cells (PBMC) from healthy donors were isolated from buffy coats (Sanquin, Amsterdam, the Netherlands). PBMC were obtained by centrifugation using Leucosep tubes (Greiner Bio-One). PBMC were collected and washed in PBS (Gibco, Thermo Fisher Technologies)+2% heat-inactivated FCS (Invitrogen), followed by hypotonic lysis of erythrocytes with sterile lysis buffer (0.15 M NH4Cl, 0.01 M KHCO3 and 0.1 mM EDTA, pH of 7.4 at 4° C., all from Merck, Darmstadt, Germany). After lysis, the PBMC were resuspended in freezing medium (70% RPMI 1640 medium (Gibco, Thermo Fisher Technologies) supplemented with 10% heat-inactivated FCS and 100 U/ml penicillin-streptomycin, 20% heat-inactivated FCS and 10% DMSO (Sigma)) and cryopreserved.
PBMC activation model: PBMC (0.2·10^6 cell/well) were cultured in 96-well flat bottom plates (Corning). For 24 hours the cells were pre-incubated with 2′-FL (Jennewein), 3′-GL (0-0.3% w/v; Carbosynth) or sodium butyrate (0.2 mM; Sigma Aldrich) and combinations thereof. Subsequently, the cells were CD3/CD28-activated (Pelicluster CD3 and Pelicluster CD28, Sanquin) for an additional 24 hours. After incubation, IFNγ was measured by ELISA in the supernatants (see below). To determine cell activity after stimulation, PBMC were incubated with cell proliferation reagent WST-1 (10 μl; Roche) and/or 10% Triton (5 μl; negative control). After 3 hours, absorbance was measured at OD450 nm and OD650 nm and cell activity was calculated according to manufacturer's instructions.

Bifidobacteria = test: Fecal slurry fermentation: total Bifidobacteria; type: cell-based
Procedure: (§1) Anaerobic fermentation of fecal slurry samples was tested in a BioLector Pro microfluidics mini multifermentor. Faecal slurry samples were collected from breast fed infants and from formula fed infants. These faecal slurry samples were processed by adding 0.6 grams feces in 40 ml Baby Reichardt V.6 medium+mucus+Ammonium sulfate+lactate and acetate. The resulting solutions were inserted to the BioLector Pro microfluidics mini multifermentor. The test legs were supplemented with 3-GL, 2′-FL, 3′-GL+2′-FL, and GOS/FOS. The control leg was supplemented with sterile water.
A 32 well plate that can handle low pH was used. The wells of this plate were filled with fecal solution. 2.5% (w/v) of the different sterile carbohydrate solutions (3′-GL, 2′-FL, 2′-FL/3′-GL (2.0+0.5%). and Glucose were added to the fecal slurry according to a template.
The experiment was started, and pH setpoint was either 5.5 (facial inoculum from infant 1, vaginally born, breast fed) or pH 6.0 (Inoculum from infant 2, vaginally born, breast fed) with continuous pH regulation, and temperature 37° C., humidity 85%, OD control. At 4, 8 and 24 hours a sample is taken for CFU determination on TOS-propionate MUP agar (total Bifidobacteria), XLD agar for Salmonella enteriditis S29, and Simons citrate inositol agar for Klebsiella pneumonia K2 and for SCFA, D- and L Lactate and ammonia analysis. Fecal pellet was used for 16s DNA sequencing.

human PBMC, unstimulated = test: Cytokine production of unstimulated PBMC (IL10, CCL20); type: cell-based; settings: for CCL20 level as compared to blanc control, in words: unstimulated PBMC; for Relative CCL 20 mean (s.e.): 0.1 w/v % 3′-GL
Source text: Isolation of PBMC from healthy donors: Human peripheral blood mononuclear cells (PBMC) from healthy donors were isolated from buffy coats (Sanquin, Amsterdam, the Netherlands). PBMC were obtained by centrifugation using Leucosep tubes (Greiner Bio-One). […] After lysis, the PBMC were resuspended in freezing medium (70% RPMI 1640 medium (Gibco, Thermo Fisher Technologies) supplemented with 10% heat-inactivated FCS and 100 U/ml penicillin-streptomycin, 20% heat-inactivated FCS and 10% DMSO (Sigma)) and cryopreserved. PBMC activation model: PBMC (0.2·10^6 cell/well) were cultured in 96-well flat bottom plates (Corning). For 24 hours the cells were pre-incubated with 2'-FL (Jennewein), 3'-GL (0-0.3% w/v; […] Sigma Aldrich) and combinations thereof. Subsequently, the cells were CD3/CD28-activated (Pelicluster CD3 and Pelicluster CD28, Sanquin) for an additional 24 hours. After incubation, IFNγ was measured by ELISA in the supernatants (see below). […] Roche) and/or 10% Triton (5 μl; negative control). […] Cytokine production of PBMC: PBMC were incubated with indicated reagents. After incubation, the supernatants were collected and IL2, IL6, IL10, IL13, IL21, TNFα, IFNγ, MIF, CCL1, CCL13, CCL17, CCL20, CCL22 and CXCL8-11 levels were measured by conducting a validated multiplex immunoassay based on Luminex technology (xMAP, Luminex Austin Tex. USA). Acquisition was conducted with the Biorad […] (Biorad laboratories, Hercules USA) in combination with xPONENT software version 4.2 (Luminex). Data was analyzed by 5-parametric curve fitting using Bio-Plex Manager software, version 6.1.1 (Biorad). After PBMC stimulation, cell culture supernatants were collected, after which cytokine responses were measured in order to test immune responsiveness of the cells. The levels of cytokines measured in stimulated conditions were corrected for the (low) levels of the cytokines measured in non-stimulated conditions. In addition, since each donor is reacting in its own efficiency onto the T cell stimulus, we calculated the individual index of cytokine response by dividing the intervention induced response by the basal stimulated response.

fecal slurry microbiota = test: Anaerobic fermentation of fecal slurry (BioLector Pro): acidification, microbiota composition; type: cell-based, human infant; settings: no pathogen spiking
Procedure: as §1
In addition the test legs were supplemented with Clostridium difficile C153 (difficile agar), Salmonella enteriditis S29 (XLD agar), Cronobacter sakasakii E71 (chromogenic agar) or Klebsiella pneumonia K2 (Simons citrate inositol agar). For every NDO and for the control also a pathogen free culture was prepared.
After fermentation the fermented solutions were tested for SCFA content (in particular acetic acid, propionic acid, butyric acid and isobutyric acid), ammonia content, lactate content and pathogen concentration. Also DNA-isolation+identification and 16s sequencing was performed to determine the composition of the microbiota.
A 32 well plate that can handle low pH was used. The wells of this plate were filled with fecal solution. […]

[2] = unstimulated, 0.2% w/v 2′-FL, 0.2 mM butyrate, blanc = 1, observed

Compound | Immune cell activity as measured by WST, in words [1] | Growth of bifidobacteria (Bifidobacteria) | effect on bifidobacteria (Bifidobacteria; inoculum of baby 2) | CCL20 level as compared to blanc control, in words (human PBMC, unstimulated) | Relative CCL 20 mean (s.e.) (human PBMC, unstimulated; [2]) | rate of initial acidification (fecal slurry microbiota) | IL10 level as compared to blanc control, in words (human PBMC, unstimulated; 0.2% 2′-FL, 0.2 mM butyrate) | Relative IL10 level, mean (se) (human PBMC, unstimulated; [2]) | extent of fermentation as measured by NaOH consumption, i.e. acid production (fecal slurry microbiota; both inocula)
Gal (beta 1-3)-Gal (beta 1-4)-Glc [3′-GL] | decrease in activation | Growth of bifidobacteria was observed | highest | did not have a statistically significant effect | 1.164 (0.212) | high | – | – | –
C[C@@H]1O[C@@H](O[C@H]2[C@H](O[C@H]3[C@H](O)[C@@H](O)C(O)O[C@@H]3CO)O[C@H](CO)[C@H](O)[C@@H]2O)[C@@H](O)[C@H](O)[C@@H]1O (stereo partly drawn) [2′-FL, α-L-Fuc-(1→2)-β-D-Gal-(1→4)-D-Glc] | significantly increased | Growth of bifidobacteria was observed | – | increased level | 2.586 (0.281) | – | significantly (p<0.05) increased level | 3.361 (1.867) | slower and lower acidification
